Measured values: patent US7572923B2, “Indirubin derivatives having anticancer property against human cancer cell line” (Anygen Co., Ltd., priority 2004, dated 2009)

What was measured:
RK3E-Ras cells [1] = assay: Cell viability by MTT assay; assay type: cell-based, rat; conditions: 1, 10, 20, 40 μM, 6, 12, 24, 48 hours
Experimental: To measure the influence to cell viability by indirubin derivative, RK3E-Ras cell, 1×10^5/well is seeding on 24 well plate. After incubation of cells for 12˜24 hours, indirubin derivative 011 in various concentration (1 μM, 10 μM, 20 μM, 40 μM) are treated for 6, 12, 24, 48 hours respectively. As control, cells without treating any compound are employed. […] FIG. 1 show the decline of cell viability after treatment of indirubin derivative 011.
According to the same condition in Example 3, other indirubin derivative 012, 030 are treated to measure the influence to cell viability.

[2] = system: human stomach cancer cell line (SNU-638); assay: Inhibition of cancer cell line proliferation, SNU-638; assay type: cell-based; conditions: 96 h, 3˜4 days incubation, absorbance at 515 nm
Experimental: (§1) For measuring the proliferation inhibition by indirubin compound, the method disclosed in K. Likhitwitayawuid et al. Journal. Nat. Prod. […] Followings are simple description of this method. The cancer cell line is diluted into 5×10^4 cfu/ml. Then, various concentrations of test compounds are added to 96 well microtiter plate containing diluted cell line. After incubating test plate for 3˜4 days at 37° C., the test plate is dried and Tris-base is added. Then, using ELISA plate detector, the absorbance at 515 nm is measured. IC50 is measured by non-linear regression method.

human cancer cell line = assay: Inhibition of cancer cell line proliferation, overall conclusion; assay type: cell-based; conditions: conclusion from Table 2
Experimental: as §1

RK3E-Ras cells [3] = assay: DNA fragmentation, agarose gel electrophoresis; assay type: cell-based, rat; conditions: 10 μM
Experimental: We test if the decline of cell viability by indirubin derivative 011 relates to apoptosis of cell or not. Genomic DNA from cells treated with indirubin derivative 011 is isolated and fragmented. RK3E-Ras cell, 6×10^5/well is seeding on 6 well plate. After incubation of cells for 12˜24 hours, 10 μM of indirubin derivative 011 is treated with cells. As a control, cells without treating any compound or cells treating DMSO in same concentration are employed.

[4] = system: human lung cancer cell line (A549); assay: Inhibition of cancer cell line proliferation, A549; assay type: cell-based; conditions: 96 h, 3˜4 days incubation, absorbance at 515 nm
Experimental: as §1

RK3E-ras solid tumor [5] = assay: Tumor suppression in RK3E-ras tumor induced rats; assay type: in vivo; conditions: Sprague Dawley rat
Experimental: RK3E cell is one of rat kidney cell and it is immortalized by EA1 oncogene. […] Inventors prepares stable RK3E-k-ras cell line by infection of retroviral expression vector to express mutant k-ras of oncogene. Prepared cell line is intramuscularly infected to Sprague Dawley rat to induce tumor. […] Tumor suppression effect by indirubin derivatives 011, 012 and 030 is measured through tumor induced rats.
(§2) 1×10^7 of RK3E-ras cells is injected to Sprague Dawley rat to induce solid tumor for 5 days and experimental groups of animals are employed by size and volume of tumor in these animals. 100 mM of indirubin derivative is injected to experimental group of animals 5 times in every other day.
Tumor is measured by vernier caliper and the volume of tumor is calculated by Carlsso calculation method {V=1/2(a.b^2), a: long axis, b: short axis}.

[6] = system: human leukemia cell line (HL-60); assay: Inhibition of cancer cell line proliferation, HL-60; assay type: cell-based; conditions: HL-60, 96 h, HL60, 3˜4 days incubation, absorbance at 515 nm
Experimental: as §1

RK3E-ras solid tumor [7] = assay: Histological appearance of tumor lesion, H&E stain; assay type: in vivo, Sprague Dawley rat; conditions: rat tumor tissue
Experimental: as §2
To observe histological appearance of tumor lesion after indirubin derivatives 011, 012 and 030 treatment, tumor tissue is immobilized in para-formaldehyde solution and is treated with paraffin. Then, H&E stain is carried out. […] From this experiment, indirubin derivatives of the present invention induce apoptosis of tumor, which results in the suppression of tumor formation in tissue level. FIG. 8 is photography showing the appearance of tumor lesion after treating indirubin derivatives 011, 012 and 030 of present invention.

[8] = system: leukemia cell line (HL-60); assay: Differentiation inducing effect, NBT reduction method; assay type: cell-based, human; conditions: 0.2 μM compound, 3 days
Experimental: For measuring the differentiation inducing effect to acute bone merrow leukemia cell line (HL-60) by indirubin AGM compound, NBT (nitroblue tetrazolium) reduction reaction method is employed. The leukemia cell line is diluted into 2×10^5 cfu/ml. […] Incubated cells are washed with phosphate buffered saline (PBS). Then, they are further incubated in PBS solution containing 0.1% NBT and 200 ng/ml of PMA (phorbol 12-myristate 13-acetate) for 30 minutes at 37° C. Incubated cells are centrifuged and collected cells are washed with PBS solution. Using cell number counter, differentiated cells forming nitroblue formazan among total cells are counted.

[9] = system: human leukemia cell line (HL-60); assay: Differentiation with low concentration 1,25-(OH)2D3 or ATRA, NBT reduction method; assay type: cell-based
Experimental: For measuring the differentiation inducing effect to acute bone merrow leukemia cell line (HL-60) by indirubin AGM compound, NBT (nitroblue tetrazolium) reduction reaction method is employed. The leukemia cell line is diluted into 2×10^5 cfu/ml. After treating 20 μM and 1 μM concentrations of test compounds, test plate is incubated for 3 days at 37° C. in 5% CO2 incubator. Incubated cells are washed with phosphate buffered saline (PBS). Then, they are further incubated in PBS solution containing 0.1% NBT and 200 ng/ml of PMA (phorbol 12-myristate 13-acetate) for 30 minutes at 37° C. Incubated cells are centrifuged and collected cells are washed with PBS solution. Using cell number counter, differentiated cells forming nitroblue formazan among total cells are counted.
Next, we test if AGM compound of present invention can synergically induce the differentiation of acute bone merrow leukemia cell line when it is treated with low concentration of 1,25-dihydroxyvitamin D3[1,25-(OH)2D3] or all-trans retinoic acid (ATRA) known as differentiation inducing agent. […] […] As a positive control, conventional differentiation inducing agent is used.

[10] = system: human colon cancer cell line (Col2); assay: Inhibition of cancer cell line proliferation, Col2; assay type: cell-based; conditions: 96 h, 3˜4 days incubation, absorbance at 515 nm
Experimental: as §1

RK3E-Ras cells [11] = assay: Annexin-V-FLUOS/propidium iodide double staining assay for apoptosis; assay type: cell-based, rat; conditions: 1 μM, 24 hours
Experimental: Annexin-V-FLUOS/propidium iodide double staining assay is a sensitive method for measuring apoptosis in cell level by detecting exposed phosphatidyl serine in apoptotic cell membrane.
RK3E-Ras cell is seeding in 6×10^5 level on cover side. Indirubin derivatives 011, 012 and 030 are treated in 1 μM concentration for 24 hours. As a control, cells without treating any compound are employed. After 24 hours, cells are annexin-V-FLUOS/propidium iodide double stained using annexin-V-FLUOS staining kit. […] It is confirmed that apoptosis of cells treated with indirubin derivatives 011, 012 and 030 is processed.

[12] = system: human abdominal cavity cancer cell line (HT 1080); assay: Inhibition of cancer cell line proliferation, HT 1080; assay type: cell-based; conditions: HT-1080, 96 h, HT108, 3˜4 days incubation, absorbance at 515 nm
Experimental: as §1

SMILES: O=C1Nc2ccc([N+](=O)[O-])cc2C1=C1Nc2ccccc2C1=NO [AGM011, 5′-nitro-1H,1′H-[2,3′] biindolylidene-3,2′-dione 3-oxime]
- cell viability according to increase of compound concentration (RK3E-Ras cells [1]): rapidly declined
- IC50 [2]: 1.21 µM
- inhibitor against proliferation of human cancer cell line (human cancer cell line): effective inhibitor
- DNA fragmentation (RK3E-Ras cells [3]; 12 hours): some DNA fragmentation occurs
- DNA fragmentation (RK3E-Ras cells [3]; 24 hours): clear DNA fragmentation is detected
- IC50 [4]: 5.43 µM
- size and volume of tumor (RK3E-ras solid tumor [5]; 100 mM injected 5 times in every other day): decrease
- suppression against tumor (tumor volume) (RK3E-ras solid tumor [5]; tumor volume by vernier caliper, V=1/2(a.b^2)): 80%
- IC50 [6]: 9.23 µM
- histological appearance of tumor lesion (RK3E-ras solid tumor [7]): necrosis or calcification of tumor is observed
- % of Differentiation [8]: 24.02 ± 0.85%
- % of Differentiation, 1,25-(OH)2D3 ([9]; 0.2 μM compound with 5 nM of 1,25-(OH)2D3): 31.79 ± 0.87%
- % of Differentiation, all-trans RA ([9]; 0.2 μM compound with 50 nM of ATRA): 34.87 ± 0.74%
- IC50 [10]: 25.5 µM
- annexin-V green fluorescence staining versus control (RK3E-Ras cells [11]): far more stained by green fluorescence than cells of control group
- progress of apoptosis (RK3E-Ras cells [11]; FIG. 4): fast processed
- IC50 [12]: 5.87 µM
